Assay results: ChEMBL document CHEMBL1139264 (Bioorg Med Chem Lett, 2009)
pIC50: −log10 of the molar value.

How the values were obtained:
[1] = target: Estrogen receptor beta (Homo sapiens) (UniProt Q92731); experiment: Binding affinity to human ERbeta receptor relative to estrogen
Estrogen receptor = target: T1, Estrogen receptor (Homo sapiens, UniProt P03372)
T1 sequence (P03372 whole entry): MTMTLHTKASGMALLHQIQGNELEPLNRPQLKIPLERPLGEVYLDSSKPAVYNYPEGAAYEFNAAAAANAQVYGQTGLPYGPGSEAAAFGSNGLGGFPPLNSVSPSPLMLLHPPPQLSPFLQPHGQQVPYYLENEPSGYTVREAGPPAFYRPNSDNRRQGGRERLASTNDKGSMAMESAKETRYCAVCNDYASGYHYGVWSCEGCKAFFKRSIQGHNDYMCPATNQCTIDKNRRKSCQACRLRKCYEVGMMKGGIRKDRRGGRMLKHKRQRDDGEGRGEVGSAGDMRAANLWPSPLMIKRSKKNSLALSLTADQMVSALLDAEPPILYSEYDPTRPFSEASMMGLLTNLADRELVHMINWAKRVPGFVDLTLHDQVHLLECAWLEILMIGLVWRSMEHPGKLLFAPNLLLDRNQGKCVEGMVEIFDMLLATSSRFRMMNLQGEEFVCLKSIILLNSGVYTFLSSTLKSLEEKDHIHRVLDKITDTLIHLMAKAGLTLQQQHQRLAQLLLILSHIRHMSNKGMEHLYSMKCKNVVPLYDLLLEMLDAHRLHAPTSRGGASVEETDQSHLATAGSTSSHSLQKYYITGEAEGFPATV
Description: Antagonist activity at human ERalpha receptor expressed in HEC1 cells assessed as transcriptional activation after 24 hrs by luciferase reporter gene assay

Estrogen receptor beta (Homo sapiens), sequence (Q92731 whole entry): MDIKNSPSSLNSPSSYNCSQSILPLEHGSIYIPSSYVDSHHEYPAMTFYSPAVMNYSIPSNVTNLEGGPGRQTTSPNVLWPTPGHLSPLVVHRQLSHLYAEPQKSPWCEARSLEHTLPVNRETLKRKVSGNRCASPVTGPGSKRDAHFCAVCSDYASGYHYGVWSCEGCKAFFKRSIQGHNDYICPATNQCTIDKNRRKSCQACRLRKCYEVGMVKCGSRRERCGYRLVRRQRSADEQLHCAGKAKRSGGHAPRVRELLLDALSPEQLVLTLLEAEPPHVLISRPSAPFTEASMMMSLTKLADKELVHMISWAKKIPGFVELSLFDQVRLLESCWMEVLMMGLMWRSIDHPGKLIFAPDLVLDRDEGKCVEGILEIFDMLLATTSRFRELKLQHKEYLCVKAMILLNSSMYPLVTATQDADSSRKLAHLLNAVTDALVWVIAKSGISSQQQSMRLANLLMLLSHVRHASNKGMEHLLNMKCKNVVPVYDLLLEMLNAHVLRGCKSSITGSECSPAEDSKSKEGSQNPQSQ

SMILES: Cc1c(-c2ccc(O)cc2)nn(-c2ccc(O)cc2)c1-c1ccc(/C=C/C(=O)N2CCCCC2)cc1
- Activity [1]: 0.015%
- pIC50 (Estrogen receptor): 6.00

SMILES: Cc1c(-c2ccc(O)cc2)nn(-c2ccc(O)cc2)c1-c1ccc(OCCN2CCCCC2)cc1
- Activity [1]: 0.05%

SMILES: Cc1c(-c2ccc(O)cc2)nn(-c2ccc(O)cc2)c1-c1ccc(CCCN2CCCCC2)cc1
- Activity [1]: 0.016%
- pIC50 (Estrogen receptor): 7.70

SMILES: Cc1c(-c2ccc(O)cc2)nn(-c2ccc(O)cc2)c1-c1ccc(O)cc1
- Activity [1]: 0.039%
